Measured values: patent publication US20260356856A1, “KRAS G12S AND G12C INHIBITORS” (MIRATI THERAPEUTICS, INC., priority 2023, published 2026)

Key:
[1] = target: T1, KRas WT (Homo sapiens, UniProt P01116); assay: KRas binding assay, TR-FRET displacement of Cy5 labelled tracer; settings: 60-minute incubation at room temperature, 1% DMSO, pH 7.5
T1 construct: Biotinylated KRas (corresponding to amino acids 1-169, produced at Accelegan Inc.); biotin (biotinylated); purchased Accelegan Inc
In short: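 Room-temperature incubation (60 min) of compound with biotinylated KRas 1-169, tracer and Tb-streptavidin preceded the TR-FRET read. Final DMSO was 1%; buffer pH 7.5. Percent-of-control values went into a 4-parameter equation to give IC50.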

[2] = target: T2, KRas G12S (Homo sapiens, UniProt P01116, G12S); assay: as above; settings: 60-minute incubation at room temperature, 1% DMSO, pH 7.5
T2 construct: Biotinylated KRas (corresponding to amino acids 1-169, produced at Accelegan Inc.); biotin (biotinylated); purchased Accelegan Inc
In short: (§1)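 KRas aa 1-169, biotinylated; Tb-streptavidin donor; 1% DMSO final. Buffer: HEPES 50 mM (pH 7.5), MgCl2 5 mM, DTT 1 mM, Tween-20 0.005%. 60 min, RT. IC50 from 4-parameter fit of POC.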

[3] = target: T3, KRas G12C (Homo sapiens, UniProt P01116, G12C); assay: as above; settings: 60-minute incubation at room temperature, 1% DMSO, pH 7.5
T3 construct: Biotinylated KRas (corresponding to amino acids 1-169, produced at Accelegan Inc.); biotin (biotinylated); purchased Accelegan Inc
In short: as §1

[4] = target: T4, KRas-mediated phosphorylation of ERK in A549 cells (Homo sapiens, UniProt P01116, G12S); assay: Inhibition of KRas-mediated phosphorylation of ERK (HTRF), A549 cells; type: cell-based; settings: HTRF pERK, 3 h incubation
T4 construct: pERK HTRF read-out

[5] = target: T5, KRas-mediated phosphorylation of ERK in H358 cells (Homo sapiens, UniProt P01116, G12C); assay: Inhibition of KRas-mediated phosphorylation of ERK (HTRF), H358 cells; type: cell-based; settings: HTRF pERK, 3 h incubation
T5 construct: pERK HTRF read-out

[6] = target: T6, KRas-mediated phosphorylation of ERK in MKN1 cells (Homo sapiens, UniProt P01116); assay: Inhibition of KRas-mediated phosphorylation of ERK (HTRF), MKN1 cells; type: cell-based; settings: MKN1 cells (KRas WT); HTRF pERK; 3 h incubation
T6 construct: pERK HTRF read-out
Description: Inhibition of KRas Phosphorylation of ERK (HTRF) by Exemplary Compounds of Formula (Ia) or (Ib)
Cisbio HTRF Advanced pERK Assay Catalog #64AERPEH • Cells: MKN1, PSN1 • Procedure: • 1. Day 1: Seed 6,000 cells/well −25 μl/well in 384-well white solid bottom plate; RPM1_10% FBS. Incubate overnight at 37 °C/5% CO2. • 2.

T4 sequence (P01116 1-188 isoform P01116-2 G12S): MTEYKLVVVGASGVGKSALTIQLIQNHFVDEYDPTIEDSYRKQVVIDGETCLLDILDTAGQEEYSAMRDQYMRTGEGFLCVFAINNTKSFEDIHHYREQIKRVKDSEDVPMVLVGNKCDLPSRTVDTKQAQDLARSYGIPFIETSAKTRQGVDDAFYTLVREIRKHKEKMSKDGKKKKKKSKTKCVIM
T2 sequence (P01116 1-169 isoform P01116-2 G12S): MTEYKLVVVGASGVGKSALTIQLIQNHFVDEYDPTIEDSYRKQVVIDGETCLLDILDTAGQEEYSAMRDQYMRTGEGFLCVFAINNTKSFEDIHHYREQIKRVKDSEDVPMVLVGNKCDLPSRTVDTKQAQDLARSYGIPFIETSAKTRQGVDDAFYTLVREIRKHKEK
T6 sequence (P01116 1-188 isoform P01116-2): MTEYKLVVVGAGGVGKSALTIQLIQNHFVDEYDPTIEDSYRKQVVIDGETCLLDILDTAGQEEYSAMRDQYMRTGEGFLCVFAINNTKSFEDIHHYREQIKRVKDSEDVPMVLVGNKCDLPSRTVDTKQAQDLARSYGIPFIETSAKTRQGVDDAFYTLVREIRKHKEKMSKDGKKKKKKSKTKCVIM
T3 sequence (P01116 1-169 isoform P01116-2 G12C): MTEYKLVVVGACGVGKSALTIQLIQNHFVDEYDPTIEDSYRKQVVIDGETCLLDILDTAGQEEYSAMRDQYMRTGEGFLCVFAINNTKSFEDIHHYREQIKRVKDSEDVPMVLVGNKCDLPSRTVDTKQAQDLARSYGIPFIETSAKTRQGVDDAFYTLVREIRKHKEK
T1 sequence (P01116 1-169 isoform P01116-2): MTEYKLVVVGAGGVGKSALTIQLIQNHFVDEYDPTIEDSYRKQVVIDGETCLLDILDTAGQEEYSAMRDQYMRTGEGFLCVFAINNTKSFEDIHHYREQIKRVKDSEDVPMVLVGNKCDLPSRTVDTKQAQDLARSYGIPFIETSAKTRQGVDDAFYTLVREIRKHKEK
T5 sequence (P01116 1-188 isoform P01116-2 G12C): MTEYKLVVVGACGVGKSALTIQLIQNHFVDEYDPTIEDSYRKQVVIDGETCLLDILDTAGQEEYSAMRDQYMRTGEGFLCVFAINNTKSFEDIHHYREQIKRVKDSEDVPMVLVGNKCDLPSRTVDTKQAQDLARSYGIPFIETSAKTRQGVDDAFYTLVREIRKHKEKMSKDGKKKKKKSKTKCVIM

Row | Structure (SMILES) | IC50 [1] [nM] | IC50 [2] [nM] | IC50 [3] [nM] | IC50 [4] [nM] | IC50 [5] [nM] | IC50 [6] [nM]
1 | COCC(=O)N(C)C(=O)CCCN(C)c1nc(OC[C@@]23CCCN2C[C@H](F)C3)nc2c(F)c(-c3ccc(F)c4sc(N)c(C#N)c34)c(Cl)cc12 [Example 307, 4-((7-(2-amino-3-cyano-7-fluorobenzo[b]thiophen-4-yl)-6-chloro-8-fluoro-2-(((2R,7aS)-2-fluorotetrahydro-1H-pyrrolizin-7a(5H)-yl)methoxy)quinazolin-4-yl)(methyl)amino)-N-(2-methoxyacetyl)-N-methylbutanamide] | 8 | 2 | 3 | 5 | 15 | 70
2 | Cc1ccn(C(=O)CCNc2cc(O[C@@H](C)[C@@H]3CCCN3C)nc(-c3noc([C@@]4(C)CCCc5sc(N)c(C#N)c54)n3)n2)n1 [Example 318, (S)-2-amino-4-methyl-4-(3-(4-((3-(3-methyl-1H-pyrazol-1-yl)-3-oxopropyl)amino)-6-((S)-1-((S)-1-methylpyrrolidin-2-yl)ethoxy)pyrimidin-2-yl)-1,2,4-oxadiazol-5-yl)-4,5,6,7-tetrahydrobenzo[b]thiophene-3-carbonitrile] | 12 | 3 | 2 | 17 | 908 | 801
3 | Cc1ccn(C(=O)CCNc2cc(-c3noc4c3CCC[C@@]43CCCc4sc(N)c(C#N)c43)nc(N3CCNC[C@@H]3C)n2)n1 [Example 321, (S)-2-amino-3′-(6-((3-(3-methyl-1H-pyrazol-1-yl)-3-oxopropyl)amino)-2-((S)-2-methylpiperazin-1-yl)pyrimidin-4-yl)-5′,6,6′,7-tetrahydro-4′H,5H-spiro[benzo[b]thiophene-4,7′-benzo[d]isoxazole]-3-carbonitrile] | 28 | 21 | 14 | 192 | 1060 | 861
4 | Cc1ccn(C(=O)CCCNc2cc(O[C@@H](C)[C@@H]3CCCN3C)nc(-c3noc([C@]4(C)CCCc5sc(N)c(C#N)c54)n3)n2)n1 [Example 324, (R)-2-amino-4-methyl-4-(3-(4-((4-(3-methyl-1H-pyrazol-1-yl)-4-oxobutyl)amino)-6-((S)-1-((S)-1-methylpyrrolidin-2-yl)ethoxy)pyrimidin-2-yl)-1,2,4-oxadiazol-5-yl)-4,5,6,7-tetrahydrobenzo[b]thiophene-3-carbonitrile] | 19 | < 2 | < 2 | 9 | 262 | 651

Second part, the molecule after the results:

Row | IC50 [1] [nM] | IC50 [2] [nM] | IC50 [3] [nM] | IC50 [4] [nM] | IC50 [5] [nM] | IC50 [6] [nM] | Structure (SMILES)
5 | > 100000 | > 100000 | > 100000 | > 10000 | > 10000 | > 10000 | CC(=O)N(C)C(=O)CCCN(C)c1cc(O[C@@H](C)[C@@H]2CCCN2C)nc(-c2cc([C@]3(C)CCCc4sc(N)c(C#N)c43)sn2)n1 [Example 319, N-acetyl-4-((2-(5-((R)-2-amino-3-cyano-4-methyl-4,5,6,7-tetrahydrobenzo[b]thiophen-4-yl)isothiazol-3-yl)-6-((S)-1-((S)-1-methylpyrrolidin-2-yl)ethoxy)pyrimidin-4-yl)(methyl)amino)-N-methylbutanamide]
6 | 264 | 179 | 131 | 621 | > 10000 | > 10000 | Cc1ccn(C(=O)CCN(C)c2cc(O[C@@H](C)[C@@H]3CCCN3C)nc(-c3noc([C@]4(C)CCCc5sc(N)c(C#N)c54)n3)n2)n1 [Example 320, (R)-2-amino-4-methyl-4-(3-(4-(methyl (3-(3-methyl-1H-pyrazol-1-yl)-3-oxopropyl)amino)-6-((S)-1-((S)-1-methylpyrrolidin-2-yl)ethoxy)pyrimidin-2-yl)-1,2,4-oxadiazol-5-yl)-4,5,6,7-tetrahydrobenzo[b]thiophene-3-carbonitrile]
7 | 525 | 20 | 10 | 96 | 9590 | 7310 | Cc1ccn(C(=O)CCCN(C)c2cc(O[C@@H](C)[C@@H]3CCCN3C)nc(-c3noc([C@@]4(C)CCCc5sc(N)c(C#N)c54)n3)n2)n1 [Example 322, (S)-2-amino-4-methyl-4-(3-(4-(methyl (4-(3-methyl-1H-pyrazol-1-yl)-4-oxobutyl)amino)-6-((S)-1-((S)-1-methylpyrrolidin-2-yl)ethoxy)pyrimidin-2-yl)-1,2,4-oxadiazol-5-yl)-4,5,6,7-tetrahydrobenzo[b]thiophene-3-carbonitrile]
8 | 346 | 26 | 17 | 140 | 3330 | 1860 | Cc1ccn(C(=O)CCCN(C)c2cc(O[C@@H](C)[C@@H]3CCCN3C)nc(-c3cc([C@]4(C)CCCc5sc(N)c(C#N)c54)sn3)n2)n1 [Example 323, (R)-2-amino-4-methyl-4-(3-(4-(methyl (4-(3-methyl-1H-pyrazol-1-yl)-4-oxobutyl)amino)-6-((S)-1-((S)-1-methylpyrrolidin-2-yl)ethoxy)pyrimidin-2-yl)isothiazol-5-yl)-4,5,6,7-tetrahydrobenzo[b]thiophene-3-carbonitrile]
